In one assay the target is T1, P300 (Homo sapiens, UniProt Q09472).
T1 construct: endogenous in cells; host or cells: 22Rv1 (ATCC CRL-2505) human prostate cancer cells
As to the kind of experiment: P300 degradation in 22Rv1 cells (5 h). It is filed as cell-based. To be noted: for Dmax: read-out: P300 Degradation (22Rv1, 5 h) DCmax. An excerpt: (§1) Biological Assays. […] Cells with 3-8 passages after purchase were used in experiments.

The target in a further assay is T2, CBP (Homo sapiens, UniProt Q92793).
T2 construct: endogenous in cells; host or cells: 22Rv1 (ATCC CRL-2505) human prostate cancer cells
T2 sequence (Q92793 whole entry): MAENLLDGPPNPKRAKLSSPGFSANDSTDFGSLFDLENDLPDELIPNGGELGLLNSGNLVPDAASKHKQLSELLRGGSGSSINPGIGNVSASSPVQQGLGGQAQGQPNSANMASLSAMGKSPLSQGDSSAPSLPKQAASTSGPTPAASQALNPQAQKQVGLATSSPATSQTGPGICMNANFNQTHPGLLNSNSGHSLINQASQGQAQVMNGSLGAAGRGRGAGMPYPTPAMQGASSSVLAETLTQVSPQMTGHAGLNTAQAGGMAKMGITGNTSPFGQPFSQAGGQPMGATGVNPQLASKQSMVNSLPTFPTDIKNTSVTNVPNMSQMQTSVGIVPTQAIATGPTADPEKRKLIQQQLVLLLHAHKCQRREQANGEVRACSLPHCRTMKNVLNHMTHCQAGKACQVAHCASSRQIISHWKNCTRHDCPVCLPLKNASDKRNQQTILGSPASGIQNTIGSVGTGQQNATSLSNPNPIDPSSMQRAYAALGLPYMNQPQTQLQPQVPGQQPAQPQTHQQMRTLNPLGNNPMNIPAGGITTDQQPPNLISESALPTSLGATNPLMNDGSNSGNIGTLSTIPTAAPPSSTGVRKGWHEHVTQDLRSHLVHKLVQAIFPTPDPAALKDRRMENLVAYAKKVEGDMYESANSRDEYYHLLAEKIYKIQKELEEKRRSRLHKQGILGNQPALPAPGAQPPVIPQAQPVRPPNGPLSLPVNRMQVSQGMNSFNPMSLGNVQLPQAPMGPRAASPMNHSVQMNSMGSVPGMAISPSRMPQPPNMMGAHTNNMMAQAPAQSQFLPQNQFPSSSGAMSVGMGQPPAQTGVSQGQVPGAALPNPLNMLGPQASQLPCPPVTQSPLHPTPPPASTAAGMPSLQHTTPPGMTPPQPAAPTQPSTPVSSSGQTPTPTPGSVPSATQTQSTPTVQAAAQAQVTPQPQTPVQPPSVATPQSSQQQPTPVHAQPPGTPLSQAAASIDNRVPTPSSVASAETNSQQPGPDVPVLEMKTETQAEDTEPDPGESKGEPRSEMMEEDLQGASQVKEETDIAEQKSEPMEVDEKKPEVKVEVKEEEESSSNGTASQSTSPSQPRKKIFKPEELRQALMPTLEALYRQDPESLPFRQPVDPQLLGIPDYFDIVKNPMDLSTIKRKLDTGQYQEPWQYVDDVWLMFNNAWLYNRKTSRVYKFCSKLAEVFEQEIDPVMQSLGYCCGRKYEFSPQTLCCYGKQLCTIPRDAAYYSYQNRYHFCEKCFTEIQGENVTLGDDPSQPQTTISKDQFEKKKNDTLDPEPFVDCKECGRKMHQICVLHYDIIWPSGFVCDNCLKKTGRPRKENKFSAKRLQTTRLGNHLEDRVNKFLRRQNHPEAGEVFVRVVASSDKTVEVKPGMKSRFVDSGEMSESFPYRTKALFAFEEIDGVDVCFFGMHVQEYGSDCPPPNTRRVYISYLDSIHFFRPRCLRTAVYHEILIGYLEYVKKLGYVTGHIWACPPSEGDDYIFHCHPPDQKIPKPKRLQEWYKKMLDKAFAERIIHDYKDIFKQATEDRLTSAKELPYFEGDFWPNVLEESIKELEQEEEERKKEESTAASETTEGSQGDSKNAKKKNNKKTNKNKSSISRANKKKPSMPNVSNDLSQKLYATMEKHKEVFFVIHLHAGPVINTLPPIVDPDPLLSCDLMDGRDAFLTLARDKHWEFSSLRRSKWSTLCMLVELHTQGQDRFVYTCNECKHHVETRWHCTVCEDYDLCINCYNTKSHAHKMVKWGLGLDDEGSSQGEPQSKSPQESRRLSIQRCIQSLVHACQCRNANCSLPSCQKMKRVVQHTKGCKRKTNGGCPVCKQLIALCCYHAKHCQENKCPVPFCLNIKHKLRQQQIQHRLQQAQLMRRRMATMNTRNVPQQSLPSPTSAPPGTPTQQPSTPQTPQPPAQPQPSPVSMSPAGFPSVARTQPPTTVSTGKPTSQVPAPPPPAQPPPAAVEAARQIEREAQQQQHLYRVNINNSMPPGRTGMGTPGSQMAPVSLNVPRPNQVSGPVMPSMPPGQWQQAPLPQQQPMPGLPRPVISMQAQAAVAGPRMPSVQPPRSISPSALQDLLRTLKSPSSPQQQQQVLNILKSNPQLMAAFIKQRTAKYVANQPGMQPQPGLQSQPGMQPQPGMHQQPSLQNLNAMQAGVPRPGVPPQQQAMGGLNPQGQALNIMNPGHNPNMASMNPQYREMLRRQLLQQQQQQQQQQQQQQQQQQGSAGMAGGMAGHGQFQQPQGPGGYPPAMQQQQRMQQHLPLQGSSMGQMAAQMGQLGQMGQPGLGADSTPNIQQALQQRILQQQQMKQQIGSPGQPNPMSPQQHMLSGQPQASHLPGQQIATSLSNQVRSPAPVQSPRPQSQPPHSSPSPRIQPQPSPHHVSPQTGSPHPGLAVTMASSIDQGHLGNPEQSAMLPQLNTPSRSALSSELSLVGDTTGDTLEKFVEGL
As to the kind of experiment: CBP degradation in 22Rv1 cells (5 h). To be noted: for Dmax: 22Rv1, 5 h, read-out: CBP Degradation (22Rv1, 5 h) DCmax. It is filed as cell-based.
Excerpt: as §1

For the next assay, the system named is HL60. As to the kind of experiment: Cell growth inhibition in HL60. To be noted: Homo sapiens, HL-60, HL60 cells; read-out: Cell Growth Inhibition (IC50) HL60. It is filed as cell-based.
A further assay concerns 22Rv1 cells. The experiment in a line: Cell growth inhibition assay (CellTiter-Glo) in 22Rv1. Format: cell-based, human. To be noted: Homo sapiens, 22Rv1 cells, 96 h incubation, read-out: Cell Growth Inhibition (IC50) 22Rv1. The procedure, abridged: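 22Rv1 prostate cancer cells (passages 3-8, DMEM with 10% FBS) were seeded at 4000 cells/well with compound, 3-fold dilutions from 10 μM final. After 96 h at 37° C and 5% CO2, growth was read by CellTiter-Glo 2.0 luminescence.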

Where two headings read alike, the source gives them in different places.

T1 sequence (Q09472 whole entry): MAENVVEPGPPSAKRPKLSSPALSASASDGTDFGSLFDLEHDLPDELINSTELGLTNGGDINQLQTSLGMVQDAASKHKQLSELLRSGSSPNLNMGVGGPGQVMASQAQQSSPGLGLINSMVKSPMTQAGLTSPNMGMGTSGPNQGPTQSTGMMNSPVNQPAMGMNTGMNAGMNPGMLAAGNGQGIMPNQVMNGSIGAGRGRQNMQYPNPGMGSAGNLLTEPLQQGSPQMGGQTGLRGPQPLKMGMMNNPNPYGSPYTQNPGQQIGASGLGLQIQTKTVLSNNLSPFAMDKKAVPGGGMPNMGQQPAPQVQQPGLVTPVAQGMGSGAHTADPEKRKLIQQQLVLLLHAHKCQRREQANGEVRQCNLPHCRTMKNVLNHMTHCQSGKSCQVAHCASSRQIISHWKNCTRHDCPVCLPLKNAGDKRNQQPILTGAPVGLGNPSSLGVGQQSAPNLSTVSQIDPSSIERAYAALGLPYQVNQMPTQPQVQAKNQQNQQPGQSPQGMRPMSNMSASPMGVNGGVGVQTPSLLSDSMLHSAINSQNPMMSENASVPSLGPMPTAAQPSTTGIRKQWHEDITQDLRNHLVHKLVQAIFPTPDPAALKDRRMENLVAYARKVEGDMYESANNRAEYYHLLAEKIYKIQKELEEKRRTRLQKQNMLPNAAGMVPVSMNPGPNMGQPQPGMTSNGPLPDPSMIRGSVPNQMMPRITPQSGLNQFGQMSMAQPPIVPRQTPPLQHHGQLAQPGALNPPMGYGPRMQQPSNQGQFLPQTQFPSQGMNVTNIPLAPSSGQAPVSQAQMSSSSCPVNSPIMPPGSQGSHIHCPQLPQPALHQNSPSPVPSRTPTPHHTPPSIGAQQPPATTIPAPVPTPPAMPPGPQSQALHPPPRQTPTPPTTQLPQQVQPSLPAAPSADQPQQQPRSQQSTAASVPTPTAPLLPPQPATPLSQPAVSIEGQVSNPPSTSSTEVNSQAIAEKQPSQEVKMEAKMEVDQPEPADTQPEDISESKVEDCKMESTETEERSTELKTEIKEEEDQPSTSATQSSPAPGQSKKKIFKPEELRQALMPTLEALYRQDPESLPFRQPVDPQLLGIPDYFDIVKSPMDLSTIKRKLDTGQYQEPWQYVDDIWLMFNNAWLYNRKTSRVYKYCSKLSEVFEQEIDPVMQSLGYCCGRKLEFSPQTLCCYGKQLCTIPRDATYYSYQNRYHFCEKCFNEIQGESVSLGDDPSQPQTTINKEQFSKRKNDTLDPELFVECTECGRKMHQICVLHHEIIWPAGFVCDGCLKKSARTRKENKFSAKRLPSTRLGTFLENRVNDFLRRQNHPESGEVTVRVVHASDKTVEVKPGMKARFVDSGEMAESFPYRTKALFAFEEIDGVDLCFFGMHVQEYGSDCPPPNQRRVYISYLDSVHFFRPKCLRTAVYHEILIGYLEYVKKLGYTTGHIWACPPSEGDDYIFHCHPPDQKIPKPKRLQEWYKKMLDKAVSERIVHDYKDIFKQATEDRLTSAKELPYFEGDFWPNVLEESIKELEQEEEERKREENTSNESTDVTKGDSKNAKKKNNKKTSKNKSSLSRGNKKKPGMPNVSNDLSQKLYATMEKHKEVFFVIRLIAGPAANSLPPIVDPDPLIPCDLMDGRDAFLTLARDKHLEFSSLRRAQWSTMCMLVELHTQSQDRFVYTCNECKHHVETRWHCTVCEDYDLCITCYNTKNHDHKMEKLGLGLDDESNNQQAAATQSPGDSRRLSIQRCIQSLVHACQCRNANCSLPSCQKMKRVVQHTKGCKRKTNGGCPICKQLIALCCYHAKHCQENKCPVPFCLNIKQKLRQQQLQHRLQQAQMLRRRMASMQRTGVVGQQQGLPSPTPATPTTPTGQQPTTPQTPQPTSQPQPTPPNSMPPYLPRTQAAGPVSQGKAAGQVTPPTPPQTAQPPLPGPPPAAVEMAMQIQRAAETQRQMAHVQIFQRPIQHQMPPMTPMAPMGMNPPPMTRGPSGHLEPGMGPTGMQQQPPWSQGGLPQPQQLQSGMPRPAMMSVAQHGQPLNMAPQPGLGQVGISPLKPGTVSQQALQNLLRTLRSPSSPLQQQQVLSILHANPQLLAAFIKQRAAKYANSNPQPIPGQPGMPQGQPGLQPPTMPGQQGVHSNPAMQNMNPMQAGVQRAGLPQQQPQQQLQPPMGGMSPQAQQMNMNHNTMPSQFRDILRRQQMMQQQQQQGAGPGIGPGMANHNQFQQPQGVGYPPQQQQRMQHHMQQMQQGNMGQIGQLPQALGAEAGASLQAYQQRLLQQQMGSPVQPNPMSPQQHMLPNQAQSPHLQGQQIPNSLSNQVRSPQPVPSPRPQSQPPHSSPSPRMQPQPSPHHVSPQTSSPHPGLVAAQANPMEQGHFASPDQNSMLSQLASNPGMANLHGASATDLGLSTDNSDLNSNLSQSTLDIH

One may read the DC50 as the concentration at which degradation of the target reaches its halfway point. Lower therefore signals a more potent degrader. A word on the IC50: it is the point on the concentration scale where inhibition reaches its midpoint. Take `Cn1cc(-c2cc3c(cc2C(F)F)N(c2nn(C4CCN(C(=O)CN5Cc6cc7c(cc6C5)C(=O)N(C5CCC(=O)NC5=O)C7=O)CC4)c4c2CN(C(=O)CF)CC4)CCC3)cn1` (stereo not drawn) [CP-053, 6-(2-(4-(3-(7-(difluoromethyl)-6-(1-methyl-1H-pyrazol-4-yl)-3,4-dihydroquinolin-1(2H)-yl)-5-(2-fluoroacetyl)-4,5,6,7-tetrahydro-1H-pyrazolo[4,3-c]pyridin-1-yl)piperidin-1-yl)-2-oxoethyl)-2-(2,6-dioxopiperidin-3-yl)-6,7-dihydropyrrolo[3,4-f]isoindole-1,3(2H,5H)-dione]: the Dmax at P300 (22Rv1, 5 h) is above 50%; on CBP, above 70%. The DC50 was below 0.1 µM at P300 (22Rv1 cells, 5 h) and below 0.01 µM on CBP (22Rv1 cells, 5 h). Besides, the IC50 with HL60 and in the assay on 22Rv1 cells was below 1 µM throughout.

Turning to `Cn1cc(-c2cc3c(cc2C(F)F)N(c2nn(C4CCN(C(=O)CN5Cc6cc7c(cc6C5)C(=O)N(C5CCC(=O)NC5=O)C7=O)CC4)c4c2CN(C(=O)C2CC2)CC4)CCC3)cn1` (stereo not drawn) [CP-054, 6-(2-(4-(5-(cyclopropanecarbonyl)-3-(7-(difluoromethyl)-6-(1-methyl-1H-pyrazol-4-yl)-3,4-dihydroquinolin-1(2H)-yl)-4,5,6,7-tetrahydro-1H-pyrazolo[4,3-c]pyridin-1-yl)piperidin-1-yl)-2-oxoethyl)-2-(2,6-dioxopiperidin-3-yl)-6,7-dihydropyrrolo[3,4-f]isoindole-1,3(2H,5H)-dione], the DC50 is above 1 µM on P300 (22Rv1 cells, 5 h) and above 1 µM at CBP (22Rv1 cells, 5 h). In addition, the Dmax is below 50% at P300 (22Rv1 cells, 5 h) and below 50% at CBP (22Rv1 cells, 5 h). Further, the IC50 was below 10 µM in the assay on HL60 and below 10 µM in the assay with 22Rv1 cells (22Rv1, 96 h).

`Cn1cc(-c2cc3c(cc2C(F)F)N(c2nn(C4CCN(C(=O)CN5Cc6cc7c(cc6C5)C(=O)N(C5CCC(=O)NC5=O)C7=O)CC4)c4c2CN(C(=O)C(F)F)CC4)CCC3)cn1` (stereo not drawn) [CP-056, 6-(2-(4-(5-(2,2-difluoroacetyl)-3-(7-(difluoromethyl)-6-(1-methyl-1H-pyrazol-4-yl)-3,4-dihydroquinolin-1(2H)-yl)-4,5,6,7-tetrahydro-1H-pyrazolo[4,3-c]pyridin-1-yl)piperidin-1-yl)-2-oxoethyl)-2-(2,6-dioxopiperidin-3-yl)-6,7-dihydropyrrolo[3,4-f]isoindole-1,3(2H,5H)-dione]: the half-maximal degradation concentration (DC50) at P300 (22Rv1 cells, 5 h) was above 1 µM; at CBP (22Rv1 cells, 5 h) it was below 1 µM. Besides, the Dmax is below 50% at P300 (22Rv1 cells, 5 h) and above 50% at CBP (22Rv1 cells, 5 h). Moreover, the IC50 was below 1 µM in the assay with HL60 and below 1 µM in the assay on 22Rv1 cells (22Rv1, 96 h).

On to `Cn1cc(-c2cc3c(cc2C(F)F)N(c2nn(C4CCN(C(=O)CN5Cc6cc7c(cc6C5)C(=O)N(C5CCC(=O)NC5=O)C7=O)CC4)c4c2CNCC4)CCC3)cn1` (stereo not drawn) [CP-057, 6-(2-(4-(3-(7-(difluoromethyl)-6-(1-methyl-1H-pyrazol-4-yl)-3,4-dihydroquinolin-1(2H)-yl)-4,5,6,7-tetrahydro-1H-pyrazolo[4,3-c]pyridin-1-yl)piperidin-1-yl)-2-oxoethyl)-2-(2,6-dioxopiperidin-3-yl)-6,7-dihydropyrrolo[3,4-f]isoindole-1,3(2H,5H)-dione], for which the half-maximal degradation concentration (DC50) at P300 (22Rv1 cells, 5 h) was above 1 µM; on CBP (22Rv1 cells, 5 h) it was above 1 µM. In addition, the Dmax on P300 (22Rv1 cells, 5 h) is below 50%; at CBP (22Rv1 cells, 5 h), below 50%. The IC50 was above 10 µM in the assay on HL60 and above 10 µM in the assay on 22Rv1 cells (22Rv1, 96 h).

Take `Cn1cc(-c2cc3c(cc2C(F)F)N(c2nn(C4CCN(C(=O)CN5Cc6cc7c(cc6C5)C(=O)N(C5CCC(=O)NC5=O)C7=O)CC4)c4c2CN(CC(F)F)CC4)CCC3)cn1` (stereo not drawn) [CP-058, 6-(2-(4-(5-(2,2-difluoroethyl)-3-(7-(difluoromethyl)-6-(1-methyl-1H-pyrazol-4-yl)-3,4-dihydroquinolin-1(2H)-yl)-4,5,6,7-tetrahydro-1H-pyrazolo[4,3-c]pyridin-1-yl)piperidin-1-yl)-2-oxoethyl)-2-(2,6-dioxopiperidin-3-yl)-6,7-dihydropyrrolo[3,4-f]isoindole-1,3(2H,5H)-dione]: the DC50 at P300 (22Rv1 cells, 5 h) was above 1 µM; on CBP (22Rv1 cells, 5 h), above 1 µM. In addition, the Dmax at P300 (22Rv1 cells, 5 h) is below 50%; on CBP (22Rv1 cells, 5 h), below 50%. Further, the IC50 with HL60 is above 10 µM; with 22Rv1 cells (22Rv1, 96 h), above 10 µM.

As for `Cn1cc(-c2cc3c(cc2C(F)F)N(c2nn(C4CCN(C(=O)CN5Cc6cc7c(cc6C5)C(=O)N(C5CCC(=O)NC5=O)C7=O)CC4)c4c2CN(CC(C)(F)F)CC4)CCC3)cn1` (stereo not drawn) [CP-059, 6-(2-(4-(3-(7-(difluoromethyl)-6-(1-methyl-1H-pyrazol-4-yl)-3,4-dihydroquinolin-1(2H)-yl)-5-(2,2-difluoropropyl)-4,5,6,7-tetrahydro-1H-pyrazolo[4,3-c]pyridin-1-yl)piperidin-1-yl)-2-oxoethyl)-2-(2,6-dioxopiperidin-3-yl)-6,7-dihydropyrrolo[3,4-f]isoindole-1,3(2H,5H)-dione], the DC50 is above 1 µM on P300 (22Rv1 cells, 5 h) and above 1 µM on CBP (22Rv1 cells, 5 h). The Dmax on P300 (22Rv1 cells, 5 h) is below 50%; at CBP (22Rv1 cells, 5 h) it was below 50%. Moreover, the half-inhibitory concentration (IC50) in the assay with HL60 is below 10 µM; with 22Rv1 cells (22Rv1, 96 h), above 10 µM.

As to `Cc1noc(C)c1-c1ccc2c(c1)nc([C@@H]1CCCC(=O)N1c1ccc(F)c(F)c1)n2C1CCN(C(=O)CN2Cc3cc4c(cc3C2)C(=O)N(C2CCC(=O)NC2=O)C4=O)CC1` (stereo partly drawn) [CP-061, 6-(2-(4-(2-((S)-1-(3,4-difluroophenyl)-6-oxopiperidin-2-yl)-5-(3,5-dimethylisoxazol-4-yl)-1H-benzo[d]imidazol-1-yl)piperidin-1-yl)-2-oxoethyl)-2-(2,6-dioxopiperidin-3-yl)-6,7-dihydropyrrolo[3,4-f]isoindole-1,3(2H,5H)-dione], the 50% degradation concentration (DC50) was above 1 µM on P300 (22Rv1 cells, 5 h) and below 0.1 µM at CBP (22Rv1 cells, 5 h). Besides, the Dmax is below 50% on P300 (22Rv1 cells, 5 h) and above 50% at CBP (22Rv1 cells, 5 h). For the same molecule, the IC50 is above 10 µM with HL60 and above 10 µM in the assay with 22Rv1 cells (22Rv1, 96 h).

Consider `Cc1noc(C)c1-c1ccc2c(c1)nc([C@@H]1CCCC(=O)N1c1ccc(F)c(F)c1)n2C1CCN(C(=O)CN2Cc3cc4c(cc3C2)C(=O)N(C2CCC(=O)NC2=O)C4)CC1` (stereo partly drawn) [CP-062, 3-(6-(2-(4-(2-((S)-1-(3,4-difluorophenyl)-6-oxopiperidin-2-yl)-5-(3,5-dimethylisoxazol-4-yl)-1H-benzo[d]imidazol-1-yl)piperidin-1-yl)-2-oxoethyl)-1-oxo-3,5,6,7-tetrahydropyrrolo[3,4-f]isoindol-2(1H)-yl)piperidine-2,6-dione], for which the half-maximal degradation concentration (DC50) on P300 (22Rv1 cells, 5 h) is below 0.1 µM; on CBP (22Rv1 cells, 5 h), below 1 µM. In addition, the Dmax at P300 (22Rv1 cells, 5 h) was above 50%; on CBP (22Rv1 cells, 5 h), below 50%. In addition, the 50% inhibitory concentration (IC50) in the assay with HL60 was above 10 µM; in the assay with 22Rv1 cells (22Rv1, 96 h) it was above 10 µM.

`Cc1noc(C)c1-c1ccc2c(c1)nc([C@@H]1CCCC(=O)N1c1ccc(F)c(F)c1)n2C1CCN(C(=O)CN2CCc3cc4c(cc3C2)C(=O)N(C2CCC(=O)NC2=O)C4=O)CC1` (stereo partly drawn) [CP-063, 6-(2-(4-(2-((S)-1-(3,4-difluorophenyl)-6-oxopiperidin-2-yl)-5-(3,5-dimethylisoxazol-4-yl)-1H-benzo[d]imidazol-1-yl)piperidin-1-yl)-2-oxoethyl)-2-(2,6-dioxopiperidin-3-yl)-5,6,7,8-tetrahydro-1H-pyrrolo[3,4-g]isoquinoline-1,3(2H)-dione]: the 50% degradation concentration (DC50) is above 1 µM at P300 (22Rv1 cells, 5 h) and above 1 µM at CBP (22Rv1 cells, 5 h). Moreover, the Dmax at P300 (22Rv1 cells, 5 h) was below 50%; on CBP (22Rv1 cells, 5 h) it was below 50%. Also, the IC50 in the assay with HL60 was above 10 µM; with 22Rv1 cells (22Rv1, 96 h), above 10 µM.

With `Cc1noc(C)c1-c1ccc2c(c1)nc([C@@H]1CCCC(=O)N1c1ccc(F)c(F)c1)n2C1CCN(C(=O)CN2CCc3cc4c(cc3CC2)C(=O)N(C2CCC(=O)NC2=O)C4=O)CC1` (stereo partly drawn) [CP-064, 7-(2-(4-(2-((S)-1-(3,4-difluorophenyl)-6-oxopiperidin-2-yl)-5-(3,5-dimethylisoxazol-4-yl)-1H-benzo[d]imidazol-1-yl)piperidin-1-yl)-2-oxoethyl)-2-(2,6-dioxopiperidin-3-yl)-6,7,8,9-tetrahydroazepino[4,5-f]isoindole-1,3(2H,5H)-dione], the half-maximal degradation concentration (DC50) on P300 (22Rv1 cells, 5 h) was above 1 µM; at CBP (22Rv1 cells, 5 h), above 1 µM. Moreover, the Dmax was below 50% on P300 (22Rv1 cells, 5 h) and below 50% at CBP (22Rv1 cells, 5 h). Also, the half-inhibitory concentration (IC50) in the assay with HL60 is above 10 µM; in the assay on 22Rv1 cells (22Rv1, 96 h) it was above 10 µM.

Consider `Cc1noc(C)c1-c1ccc2c(c1)nc([C@@H]1CCCC(=O)N1c1ccc(F)c(F)c1)n2C1CCN(C(=O)CCN2Cc3cc4c(cc3C2)C(=O)N(C2CCC(=O)NC2=O)C4=O)CC1` (stereo partly drawn) [CP-065, 6-(3-(4-(2-((S)-1-(3,4-difluorophenyl)-6-oxopiperidin-2-yl)-5-(3,5-dimethylisoxazol-4-yl)-1H-benzo[d]imidazol-1-yl)piperidin-1-yl)-3-oxopropyl)-2-(2,6-dioxopiperidin-3-yl)-6,7-dihydropyrrolo[3,4-f]isoindole-1,3(2H,5H)-dione], for which the DC50 was above 1 µM at P300 (22Rv1 cells, 5 h) and above 1 µM on CBP (22Rv1 cells, 5 h). In addition, the Dmax on P300 (22Rv1 cells, 5 h) is below 50%; at CBP (22Rv1 cells, 5 h) it was below 50%. Besides, the IC50 was above 10 µM with HL60 and above 10 µM in the assay with 22Rv1 cells (22Rv1, 96 h).

The values are drawn from US20240150360A1 (THE REGENTS OF THE UNIVERSITY OF MICHIGAN, priority 2021, published 2024).
